# Measurements reported in the NIST ThermoML archive (doi:10.1016/j.jct.2012.04.025).
# Numbers after ± are expanded uncertainties.
# Assay: molar heat capacity at constant pressure
# Details: 298.15 K; 101.33 kPa; Liquid; High-precision drop calorimeter
row,Structure (SMILES),molar heat capacity at constant pressure [J/K/mol]
1,CCCCCC[n+]1ccn(C)c1.O=S(=O)([N-]S(=O)(=O)C(F)(F)F)C(F)(F)F,629.4 ± 6
2,CCCC[n+]1ccn(C)c1.O=S(=O)([N-]S(=O)(=O)C(F)(F)F)C(F)(F)F,565.9 ± 5
3,CCCCCCCCCCn1cc[n+](C)c1.O=S(=O)([N-]S(=O)(=O)C(F)(F)F)C(F)(F)F,754.5 ± 7
4,CCCCCn1cc[n+](C)c1.O=S(=O)([N-]S(=O)(=O)C(F)(F)F)C(F)(F)F,595.6 ± 6
5,CCCCCCCn1cc[n+](C)c1.O=S(=O)([N-]S(=O)(=O)C(F)(F)F)C(F)(F)F,659.2 ± 6
6,CCCn1cc[n+](C)c1.O=S(=O)([N-]S(=O)(=O)C(F)(F)F)C(F)(F)F,534.9 ± 5
7,CCn1cc[n+](C)c1.O=S(=O)([N-]S(=O)(=O)C(F)(F)F)C(F)(F)F,504.8 ± 5
8,CCCCCCCCn1cc[n+](C)c1.O=S(=O)([N-]S(=O)(=O)C(F)(F)F)C(F)(F)F,690.2 ± 7
9,CCCCCCCCCCCCn1cc[n+](C)c1.O=S(=O)([N-]S(=O)(=O)C(F)(F)F)C(F)(F)F,820.2 ± 8
